Experiment [1] concerns A549 (human lung adenocarcinoma). The experiment in a line: Cytotoxicity assay (CellTiter-Glo), A549. It is filed as cell-based. The conditions noted are these: 72 h, A549 cells, three days culture, rounded to 1 significant figure. As for the experimental part: (§1) The cell lines A549 (human lung adenocarcinoma), OVCAR-3 (human ovarian carcinoma), HL60 (human promyelocytic leukemia), DLD1 (human colon adenocarcinoma) and HCT116 (human colon carcinoma) were obtained from the American Type Culture Collection, Manassas, Va., U.S.A. All products were used in accordance with manufacturer's directions. The histone phosphorylation (p-H3) assay was conducted in duplicate and the cytotoxicity assays were conducted in triplicate, in each case with solvent control.
(§2) Log-phase cells were trypsinized, collected by centrifugation, and resuspended in a small volume of fresh medium, and the density of viable cells was determined following Trypan Blue staining. Cells were diluted in fresh media, the test compounds (concentrations between 0.1 μM and 200 μM, dissolved in DMSO, 50 μL) added immediately after dilution to achieve a final DMSO concentration of 0.5%, then the suspensions added at 150 μL/well to 96-well plates, and incubated overnight to allow attachment in the case of adherent cells. The cells were cultured for three days (about three doubling times). The cells were then collected by centrifugation, and 100 μL of the culture supernatant was replaced by the CellTiter-Glo reagent. After incubation for 15 minutes at room temperature, the plate was read with a luminometer. […] The table gives cytotoxicity IC50s in μM, rounded to 1 significant figure.
In general terms: In ATP-based viability assays light output follows the ATP content of the culture.

For experiment [2], the system named is HCT116 (human colon carcinoma). The experiment in a line: Cytotoxicity assay (CellTiter-Glo), HCT116. The conditions noted are these: HCT-116, 72 h, HCT116 cells, three days culture, rounded to 1 significant figure. It is filed as cell-based. As for the experimental part:
as §1, §2

For experiment [3], the system named is HL60 (human promyelocytic leukemia) xenograft. The experiment can be described thus: HL60 xenograft assay, oral administration. It is filed as in vivo. The conditions noted are these: Mus musculus, HL-60, po, nu/nu mice, read-out: inhibition of tumor growth compared to vehicle. The procedure:
(§3) Male athymic nu/nu mice, 6-8 weeks old (about 20 g), were implanted subcutaneously in the right fore flank with about 1×10^7 cells of the HL60 (human promyelocytic leukemia) line that had been grown in antibiotic-free medium for at least two passages. About 6 days after tumor implantation, when the tumor weight was about 50-250 mg, the mice were assigned to treatment groups. Test compounds were suspended at 20 mg/mL in 0.55 wt. % aqueous carboxymethylcellulose. Groups of mice were treated with compounds 2A, 9A, and 12A at 200 mg/Kg by gavage once/day on days 1-5 and 8-10 from the start of treatment, with vehicle control. Tumor growth inhibition was measured on the last day of treatment.
The experiment was conducted generally as described in In vivo Example 1. Groups of mice were treated with compounds 5A, 6A, 7A, 8A, and 10A at 200 mg/Kg by gavage once/day on days 1-5 and 8-10 from the start of treatment, with vehicle control. Tumor growth inhibition was measured the day after the last day of treatment.

Experiment [4] deals with tubulin. The experiment can be described thus: Inhibition of tubulin polymerization, cell-free fluorescence assay. It is filed as biochemical.
Experiment [5] deals with p-H3 in A549 cells. The experiment can be described thus: Histone phosphorylation (p-H3) assay. It is filed as cell-based. To be noted: Homo sapiens, 4 hr incubation, dot-blot. The procedure: as §1
Log phase A549 cells were seeded in a 96-well plate and allowed to attach overnight. The test compounds were diluted in DMSO (8 concentrations with serial 3-fold dilutions) and added to the cells (0.5% DMSO final concentration), and the cells incubated for 4 hr. The cells were then washed three times with cold phosphate-buffered saline (PBS), and lysis buffer was added. After 30 min shaking at 4° C. and centrifugation, the supernatants were transferred to a nitrocellulose membrane by a “dot-blot” apparatus. After washing the wells, the membrane was processed for Western blot. Detection of p-H3 and β-actin was performed on the same membrane with primary rabbit anti-p-H3 and mouse anti-β-actin antibodies followed by secondary goat anti-rabbit IRDye800 and goat anti-mouse AlexaFluor 680 antibodies. The membranes were scanned on an Odyssey scanner.

The subject of experiment [6] is OVCAR-3 (human ovarian carcinoma). The experiment in a line: Cytotoxicity assay (CellTiter-Glo), OVCAR-3. It is filed as cell-based. To be noted: 72 h, OVCAR-3 cells, three days culture, rounded to 1 significant figure. The procedure: as §1, §2
The subject of experiment [7] is HL60 (human promyelocytic leukemia). The experiment in a line: Cytotoxicity assay (CellTiter-Glo), HL-60. It is filed as cell-based. To be noted: 72 h, HL-60 cells, three days culture, rounded to 1 significant figure. As for the experimental part:
as §1, §2

Experiment [8] relates to HCT116 (human colon carcinoma) xenograft. The experiment in a line: HCT116 xenograft assay, oral administration. It is filed as in vivo. The conditions noted are these: nu/nu mice, 200 mg/Kg by gavage once/day days 1-5 and 8-12, measured 2 days after the last day of treatment. As for the experimental part:
as §3, with “the HCT116” for “the HL60”, “(human colon carcinoma)” for “(human promyelocytic leukemia)”, “About 14-21” for “About 6”, “tumor transplantation,” for “tumor implantation,”, “and 8-12” for “and 8-10”, “measured 2 days after” for “measured on”

In experiment [9] the test system is DLD1 (human colon adenocarcinoma). The experiment can be described thus: Cytotoxicity assay (CellTiter-Glo), DLD1. It is filed as cell-based. The conditions noted are these: DLD-1, 72 h, DLD1 cells, three days culture, rounded to 1 significant figure. As for the experimental part: as §1, §2
The test system of experiment [10] is tubulin polymerization in A549 cells. The experiment in a line: Inhibition of tubulin polymerization in A549 cells by immunomicroscopy and cell fractionation. It is filed as cell-based, human.
[11] abbreviates: 200 mg/Kg by gavage once/day days 1-5 and 8-10, measured on the last day of treatment (In vivo Example 1).

Read-outs that look alike come from different tables or passages of the source.

Usually IC50 stands for the midpoint of a concentration-inhibition curve.

In the case of `COc1ccc(Nc2sc(C(=O)c3ccc(Cl)cc3)c(N)c2C#N)cc1` [Compound 2A], the IC50 in experiment [1] stood at 10 nM; in experiment [2], 10 nM; in experiment [5], 20 nM; in experiment [6], 20 nM; in experiment [7] it was 10 nM; in experiment [9] it was 6 nM. Moreover, the inhibition in vivo at 200 mg/kg in experiment [3] (setting [11]) came out at 46%. Also, the “inhibition of tubulin polymerization (cell-free)” value (from here on “inhibition … (cell-free)”) in experiment [4] is “inhibition of tubulin polymerization”. The “inhibition of tumor growth compared to vehicle” value (“inhibition … compared to vehicle” for short) in experiment [8] was determined as 35%.

Regarding `COc1ccc(Nc2sc(C(=O)c3ccc(OC)cc3OC)c(N)c2C#N)cc1` [Compound 7A, 4-amino-5-(2,4-dimethoxybenzoyl)-2-[(4-methoxyphenyl)amino]thiophene-3-carbonitrile], the IC50 in experiment [1] came out at 30 nM; in [2] it was 10 nM; in experiment [10] (read-out: IC50, inhibition of tubulin polymerization in A549 cells), 9 nM; in experiment [7], 20 nM. In experiment [3] (200 mg/Kg by gavage once/day days 1-5 and 8-10, measured the day after the last day of treatment (In vivo Example 3)), the inhibition in vivo at 200 mg/kg stood at 45%.

Consider `CCN(CC)c1ccc(C(=O)c2sc(Nc3ccc4c(c3)OCO4)c(C#N)c2N)cc1` [Compound 9A], for which the IC50 in [1] stood at 40 nM; in experiment [2] it was 40 nM; in [6] it was 20 nM; in experiment [7], 40 nM; in experiment [9], 20 nM. Besides, in experiment [3] (setting [11]), the inhibition in vivo at 200 mg/kg is 43%. In addition, the “inhibition … (cell-free)” value in [4] was “inhibition of tubulin polymerization”. The “inhibition … compared to vehicle” value in experiment [8] is recorded as 36%.

As to `COc1ccc(Nc2sc(C(=O)c3ccc(OC)cc3)c(N)c2C#N)cc1` [Compound 12A], the IC50 worked out at 50 nM in experiment [1]; 40 nM in experiment [2]; 30 nM in [6]; 40 nM in [7]; 40 nM in experiment [9]. Also, the inhibition in vivo at 200 mg/kg in experiment [3] (setting [11]) was 66%. For the same compound, in experiment [4], the “inhibition … (cell-free)” value is reported as “inhibition of tubulin polymerization”. In experiment [8], the “inhibition … compared to vehicle” value came out at 46%.

Consider `CCc1ccc(Nc2sc(C(=O)c3ccc(Cl)cc3)c(N)c2C#N)cc1` [Compound 15A, 4-amino-5-(4-chlorobenzoyl)-2-[(4-ethylphenyl)amino]thiophene-3-carbonitrile], for which the IC50 in experiment [1] came to 100 nM; in experiment [5], 500 nM; in experiment [7] it was 90 nM.

The compound `N#Cc1ccc(Nc2sc(C(=O)c3ccc(Cl)cc3)c(N)c2C#N)cc1` [Compound 40A] showed an IC50 in experiment [1] of 2000 nM. Further, the “activity in tubulin polymerization assay in A549 cells” value in [10] is “inactive”.

The values are drawn from US8410163B2, “Substituted 4-amino-5-benzoyl-2-(phenylamino)thiophene-3-carbonitriles and substituted 4-amino-5-benzoyl-2-(phenylamino)thiophene-3-carboxamides as tubulin polymerization inhibitors” (Telik, Inc., priority 2009, dated 2013).
